Laboratory results published in article PMC8899467 (Frontiers in Pharmacology, 2022).

Legend:
[1] = target: T1, bovine fibrinogen (Bos taurus, UniProt P02672+P02676+P12799); experiment: intrinsic Trp fluorescence quenching; assay type: binding; details: 0.8 mg/ml fibrinogen, Tyrode buffer pH 7.4, 37 °C, 15 min
T1 construct: gene FGA; native plasma protein, Sigma-Aldrich; hexamer
T1 sequence (P02672 20-615): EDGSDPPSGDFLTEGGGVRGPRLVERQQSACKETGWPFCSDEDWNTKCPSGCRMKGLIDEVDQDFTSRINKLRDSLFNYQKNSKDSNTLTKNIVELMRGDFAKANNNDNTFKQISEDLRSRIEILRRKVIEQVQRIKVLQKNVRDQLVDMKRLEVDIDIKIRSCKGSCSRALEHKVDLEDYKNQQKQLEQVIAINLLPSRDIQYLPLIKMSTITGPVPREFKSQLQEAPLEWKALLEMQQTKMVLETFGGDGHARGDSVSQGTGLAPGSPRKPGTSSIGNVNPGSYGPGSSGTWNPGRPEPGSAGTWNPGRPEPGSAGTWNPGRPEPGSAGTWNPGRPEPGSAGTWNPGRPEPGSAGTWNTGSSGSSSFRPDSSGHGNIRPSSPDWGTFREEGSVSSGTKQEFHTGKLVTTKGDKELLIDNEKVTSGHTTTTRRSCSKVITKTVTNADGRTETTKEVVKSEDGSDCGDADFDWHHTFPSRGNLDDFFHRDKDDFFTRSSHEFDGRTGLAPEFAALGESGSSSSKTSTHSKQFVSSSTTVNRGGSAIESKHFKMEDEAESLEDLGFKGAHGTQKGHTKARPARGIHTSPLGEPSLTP
T1 sequence (P02676 1-468): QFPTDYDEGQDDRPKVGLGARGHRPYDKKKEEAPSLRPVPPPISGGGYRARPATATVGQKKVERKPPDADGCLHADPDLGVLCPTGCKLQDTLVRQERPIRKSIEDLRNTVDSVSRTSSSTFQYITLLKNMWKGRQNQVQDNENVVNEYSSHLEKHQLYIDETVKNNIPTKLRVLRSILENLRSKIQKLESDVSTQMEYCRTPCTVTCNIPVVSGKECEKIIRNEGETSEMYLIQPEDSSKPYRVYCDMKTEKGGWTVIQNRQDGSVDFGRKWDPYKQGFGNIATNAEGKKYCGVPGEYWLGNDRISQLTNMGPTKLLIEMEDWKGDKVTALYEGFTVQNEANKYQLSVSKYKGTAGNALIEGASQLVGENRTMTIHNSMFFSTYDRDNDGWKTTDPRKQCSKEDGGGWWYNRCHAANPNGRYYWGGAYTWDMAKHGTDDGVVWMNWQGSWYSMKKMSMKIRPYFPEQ
T1 sequence (P12799 25-444): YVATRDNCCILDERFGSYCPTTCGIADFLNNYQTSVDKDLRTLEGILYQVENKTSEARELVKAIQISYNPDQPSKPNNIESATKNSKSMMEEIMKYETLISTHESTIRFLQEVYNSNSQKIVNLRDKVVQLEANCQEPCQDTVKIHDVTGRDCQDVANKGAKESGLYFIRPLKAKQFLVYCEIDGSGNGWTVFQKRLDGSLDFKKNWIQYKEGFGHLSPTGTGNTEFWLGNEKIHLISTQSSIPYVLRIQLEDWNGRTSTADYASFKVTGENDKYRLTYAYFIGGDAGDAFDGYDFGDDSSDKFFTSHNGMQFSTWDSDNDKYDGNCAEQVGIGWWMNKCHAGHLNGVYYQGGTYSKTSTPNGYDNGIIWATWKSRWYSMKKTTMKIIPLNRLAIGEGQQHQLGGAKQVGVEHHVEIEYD

[2] = target: T2, bovine serum albumin (BSA) (Bos taurus, UniProt P02769); experiment: intrinsic Trp fluorescence quenching; assay type: binding; details: 0.8 mg/ml BSA, Tyrode buffer pH 7.4, 37 °C, 15 min
T2 construct: gene ALB; native mature serum albumin
T2 sequence (P02769 25-607): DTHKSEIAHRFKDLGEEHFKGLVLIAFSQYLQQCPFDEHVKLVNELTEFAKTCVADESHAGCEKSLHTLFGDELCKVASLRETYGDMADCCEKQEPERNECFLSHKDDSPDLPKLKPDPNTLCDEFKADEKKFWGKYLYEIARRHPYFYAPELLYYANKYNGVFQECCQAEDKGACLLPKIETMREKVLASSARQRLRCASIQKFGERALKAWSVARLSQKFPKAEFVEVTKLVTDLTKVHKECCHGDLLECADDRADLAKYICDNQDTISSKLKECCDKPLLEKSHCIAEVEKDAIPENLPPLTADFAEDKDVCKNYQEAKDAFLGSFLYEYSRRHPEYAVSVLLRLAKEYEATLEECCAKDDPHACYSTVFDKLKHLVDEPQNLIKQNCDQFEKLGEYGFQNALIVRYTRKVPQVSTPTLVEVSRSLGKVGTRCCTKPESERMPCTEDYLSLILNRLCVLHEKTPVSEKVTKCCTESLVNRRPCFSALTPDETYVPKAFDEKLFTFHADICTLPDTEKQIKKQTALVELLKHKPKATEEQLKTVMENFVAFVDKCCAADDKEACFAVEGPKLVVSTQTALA

**Q.** How did the “intrinsic Trp fluorescence quenching” value [1] turn out when C[C@@H]1O[C@@H](OC[C@H]2O[C@@H](Oc3c(-c4ccc(O)c(O)c4)oc4cc(O)cc(O)c4c3=O)[C@H](O)[C@@H](O)[C@@H]2O)[C@H](O)[C@H](O)[C@H]1O [rutin] was run?
**A.** The value was “Pre-incubation of rutin and RS with fibrinogen (Figures 6A,B) or albumin (Figures 6C,D) decreased the fluorescence”.

**Q.** And the “intrinsic Trp fluorescence quenching” value [2]?
**A.** Its value is “or albumin (Figures 6C,D) decreased the fluorescence of their Trp residues”.
